Results: patent publication US5162218A, “Conjugated polypeptides and methods for their preparation” (The Regents of the University of California, priority 1991, dated 1992)

Key:
[1] = target: T1, MOPC315 IgA Fab fragment, thiolated Fab labeled with bromoketone 4 (thiol tethered at tyrosine 34L) (Mus musculus, UniProt P01729+P01822); test: Ester cleavage assay; type: biochemical
T1 construct: Fab fragment, generated by treating the reduced and alkylated IgA with papain; made in house
Description: (§1) Cleavage of DNP coumarin esters 14 and 15 by the thiol-containing antibodies was assayed in the presence and absence of 0.1 μM NaCl, 50 mM sodium phosphate, pH 7.0, with 24 μM dithiothreitol at 10° C. The release of free coumarin was quantitated fluorometrically, exciting at 355 nm and measuring emission at 455 nm. The S-thiopyridyl Fab was first dialyzed against assay buffer, 30 min. prior to the assays, an aliquot of the thiopyridyl Fab (0.15 mg in 0.19 ml) was reduced with 3.8 mM dithiothreitol at 20° C. For each assay, reduced, thiolated Fab (15 μg in 18.8 μl) was diluted with assay buffer (2.95 ml) so that the net concentrations of thiolated Fab and of dithiothreitol were 0.1 μM and 24 μM, respectively. After equilibrating, the substrate was added (30 μl of a stock solution in acetonitrile) and the solution mixed for 10 sec. before monitoring fluorescence change. Antibody rates were corrected by subtracting the rate of cleavage in the absence of Fab.
(§2) The reaction kinetics are consistent with the formation of a Michaelis complex (FIG. 6). […] Neither the uncleaved affinity-labeled antibody nor the iodoacetamide-alkylated antibody accelerated the rate of the thiolysis reaction above the background rate. The stoichiometry of product release corresponded to 1.0 coumarin to 1.0 Fab-SH. […]

MOPC315 IgA Fab fragment = target: T2, MOPC315 IgA Fab fragment (Mus musculus, UniProt P01729+P01822+P01844+P01878); test: Affinity labeling of Fab (incorporation of cleavable affinity labels); type: binding; settings: for % Fab labeled (without DNP-glycine) / label incorporated: Fab 10 μM; for % Fab labeled (without DNP-glycine): 1.5 equivalents aldehyde plus NaCNBH3, pH 7.0, 37° C., 20 hours, or 1.3 equivalents α-bromoketone, pH 9.0, 37° C., 16 hours; for % Fab labeled (with DNP-glycine): as without, in the presence of 10 mM competitive inhibitor DNP-glycine; for label incorporated: 1.5 or 1.3 equivalents of label, 37° C.; for non-specific labeling: in the presence of 10 mM DNP-glycine
T2 construct: Fab fragment, generated by treating the reduced and alkylated IgA with papain; made in house
Description: The strategy for introducing a thiol into the binding site of MOPC315 is outlined in FIG. 3. These steps were carried out with the Fab fragment, generated by treating the reduced and alkylated IgA with papain followed by affinity chromatography on DNP-coupled Sepharose 4B (Goetzl (1970) Biochemistry 9:1267). The Fab fragment (at 10 μM) was treated with either 1.5 equivalents of aldehydes 1 or 2 for one hour followed by 7.5 equivalents of NaCNBH3, in 0.2M sodium phosphate; pH 7.0, at 37° C. for 20 hours, or with 1.3 equivalents of α-bromoketones 3, 4, or 5 in 0.1M sodium bicarbonate, pH 9.0; at 37° C. for 16 hours. In both cases, the labeled Fab was purified by chromatography on Sephadex G-50 in 0.1M sodium phosphate, pH 7.3, and, after lyophilization, subsequent affinity chromatography on DNP-coupled Sepharose 4B (Goetzl, supra.) to remove unlabeled or non-specifically labeled Fab. The extent of derivatization was quantitated spectrophotometrically (for labels 1 and 2, λmax =360 nm, , ε=12,800 M^-1 cm^-1) and additionally, for labels 1 and 2, by incorporation of tritium from NaCNB^3 H3 (using 12 mCi/millimole NaCNB^3 H3). […] In both cases, less than 10% non-specific labeling occurred in the presence of 10 mM of the competitive inhibitor DNP-glycine.

[2] = target: T3, MOPC315 IgA Fab fragment, thiolated Fab labeled with 2 (Fab-SH, thiol tethered at residue 52H of the heavy chain) (Mus musculus, UniProt P01729+P01822); test: Ester cleavage (thiolysis) assay, fluorometric release of coumarin; type: biochemical
T3 construct: Fab fragment, generated by treating the reduced and alkylated IgA with papain; made in house
Description: as §1, §2

[3] = target: T4, MOPC315 fluorescein-Fab adduct (S-thiopyridyl Fab labeled with 2, derivatized with N-fluoresceinthioureido-2-mercaptoethylamine) (Mus musculus, UniProt P01729+P01822); test: Fluorescence quenching binding assay; settings: 0.10 μM adduct, 50 mM NaCl, 50 mM sodium phosphate, pH 7.0, 10° C.; read-out: association constant (converted)
T4 construct: Fab fragment, generated by treating the reduced and alkylated IgA with papain; made in house
Description: FIG. 7 illustrates the results of a fluorescence quenching binding assay for DNP-glycine with fluorescein-Fab adduct (.quadrature.) versus control with fluorescein plus underivatized Fab ( ). Fluorescence quenching experiments were carried at 10° C. using 492 nm for excitation and measuring emission at 521 nm. The fluorescein-Fab adduct was diluted with assay buffer (above) to 0.10 μM. Aliquots of 2,4-DNP-glycine were added and, after mixing, the fluorescence observed. Free N-fluoresceinthioureido-2-mercapthoethylamine and underivatized Fab, each at 0.10 μM, were treated in a similar experiment.
(§3) Fluorescence quenching experiments were carried out at 10° C. using 492 nm for excitation and measuring emission at 521 nm. The fluorescein-Fab adduct was diluted wi.:h assay buffer (50 mM NaCl. 50 mM sodium phosphate, pH 7.0) to 0.10 μM. Aliquots of 2,4-DNP-glycinewere added and, after mixing, the fluorescence observed. The association constant of DNP-glycine to the fluorescein-Fab adduct was determined to be 3.0×10^5 M^-1, almost identical to the KA of DNP-glycine to underivatized MOPC 315, 2.0×10^5 M^-1.

[4] = target: IgA MOPC315, underivatized; test: Association of DNP ligands with the underivatized antibody; type: binding; settings: underivatized MOPC 315
Description: The following studies were carried out on the IgA MOPC315, which binds substituted 2,4-dinitrophenyl (DNP) ligands with association constants ranging from 5×10^4 to 10^6 M^-1 (Haselkorn et al. (1974) Biochemistry 13:2210). Although a three-dimensional structure is not available, the antibody combining site has been characterized by spectroscopic methods (UV, fluorometry, NMR), chemical modification, and amino acid sequencing of the variable region. Moreover, earlier affinity-labeling studies with reagents of varying structures (Givol and Wilcheck (1977) Meth. Enzy. 46:479; Givol et al. (1971) Biochemistry 10:3461; and Strausbauch et al. (1971) Biochemistry 10:4342) defined a number of reactive amino acid side chains in the vicinity of the combining site.
as §3

T2 sequence (P01822+P01878 fused): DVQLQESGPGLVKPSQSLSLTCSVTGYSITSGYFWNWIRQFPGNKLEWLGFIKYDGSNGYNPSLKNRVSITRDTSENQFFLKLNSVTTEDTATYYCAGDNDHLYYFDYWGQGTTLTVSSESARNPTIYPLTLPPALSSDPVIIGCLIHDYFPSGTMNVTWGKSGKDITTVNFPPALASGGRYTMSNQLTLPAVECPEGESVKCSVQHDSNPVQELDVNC
T2 sequence (P01729+P01844 fused): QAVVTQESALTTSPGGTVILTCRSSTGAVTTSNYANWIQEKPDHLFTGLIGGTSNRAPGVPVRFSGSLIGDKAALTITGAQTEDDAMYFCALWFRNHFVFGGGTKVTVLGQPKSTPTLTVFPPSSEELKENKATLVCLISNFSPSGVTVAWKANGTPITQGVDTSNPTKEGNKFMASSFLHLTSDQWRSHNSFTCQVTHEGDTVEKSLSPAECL
T3 sequence (P01822 19-137): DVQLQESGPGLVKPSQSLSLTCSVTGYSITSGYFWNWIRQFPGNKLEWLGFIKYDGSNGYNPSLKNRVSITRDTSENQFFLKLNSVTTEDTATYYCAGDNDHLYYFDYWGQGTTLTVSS
T3 sequence (P01729 20-129): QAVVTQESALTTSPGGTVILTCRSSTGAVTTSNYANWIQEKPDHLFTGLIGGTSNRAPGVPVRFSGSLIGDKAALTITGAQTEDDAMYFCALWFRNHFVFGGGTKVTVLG
T3 sequence (P01878 1-100 partner limits assumed): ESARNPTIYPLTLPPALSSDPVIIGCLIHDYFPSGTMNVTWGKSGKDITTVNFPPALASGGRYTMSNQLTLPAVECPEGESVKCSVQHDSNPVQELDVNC
T3 sequence (P01844 whole entry partner, the tested form may be a part): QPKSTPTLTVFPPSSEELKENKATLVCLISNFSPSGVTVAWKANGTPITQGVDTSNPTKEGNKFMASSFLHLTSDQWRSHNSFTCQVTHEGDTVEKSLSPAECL
T1 sequence (P01822 19-137): as the sequence (P01822 19-137) above
T1 sequence (P01729 20-129): as the sequence (P01729 20-129) above
T1 sequence (P01878 1-100 partner limits assumed): as the sequence (P01878 1-100 partner limits assumed) above
T1 sequence (P01844 whole entry partner, the tested form may be a part): as the sequence (P01844 whole entry partner, the tested form may be a part) above
T4 sequence (P01822 19-137): as the sequence (P01822 19-137) above
T4 sequence (P01729 20-129): as the sequence (P01729 20-129) above
T4 sequence (P01878 1-100 partner limits assumed): as the sequence (P01878 1-100 partner limits assumed) above
T4 sequence (P01844 whole entry partner, the tested form may be a part): as the sequence (P01844 whole entry partner, the tested form may be a part) above

Structure (SMILES) | % Fab labeled (without DNP-glycine) (MOPC315 IgA Fab fragment) [%] | % Fab labeled (with DNP-glycine) (MOPC315 IgA Fab fragment) [%] | other results
CC(=O)Oc1ccc([N+](=O)[O-])cc1[N+](=O)[O-] [DNP-acetate] | – | – | hydrolysis of ester by thiolated Fab [1]: did not hydrolyze
O=C(CBr)CCCCSc1ccc([N+](=O)[O-])cc1[N+](=O)[O-] [compound 5, 1-Bromo-2=oxo-6-(S-DNP)-mercaptohexane] | 15 | 0 | –
O=C(CCNc1ccc([N+](=O)[O-])cc1[N+](=O)[O-])Oc1ccc2ccc(=O)oc2c1 [ester 14, (N-DNP)-3-Aminopropanoic acid 7-hydroxycoumarin ester] | – | – | acceleration of cleavage, factor over the cleavage reaction in equimolar dithiothreitol ([2]; pH 7.0, 10° C.): 6×10^4
O=C(CBr)CCSc1ccc([N+](=O)[O-])cc1[N+](=O)[O-] [compound 3, 1-Bromo-2-oxo-4-(S-DNP)-mercaptobutane] | 0 | 0 | –
O=CCCCSSCCNc1ccc([N+](=O)[O-])cc1[N+](=O)[O-] [compound 2] | 95 | 10 | label incorporated (MOPC315 IgA Fab fragment): over 90%; non-specific labeling (MOPC315 IgA Fab fragment): less than 10%
O=C(CBr)CCCSc1ccc([N+](=O)[O-])cc1[N+](=O)[O-] [compound 4, 1-Bromo-2-oxo-5-(S-DNP)-mercaptopentane] | 85 | 0 | label incorporated (MOPC315 IgA Fab fragment): over 90%; non-specific labeling (MOPC315 IgA Fab fragment): less than 10%
O=C(O)CNc1ccc([N+](=O)[O-])cc1[N+](=O)[O-] [DNP-glycine] | – | – | Ki [2]: 8 µM; Kd [3]: 3.33 µM; KA [4]: 200000 M⁻¹
O=CCCSSCCNc1ccc([N+](=O)[O-])cc1[N+](=O)[O-] [compound 1, (N-2,4-Dinitrophenyl)-2-aminoethyl 3-oxopropyl disulfide] | 22 | 5 | –
